From article PMC11224111, “Optimizing the pharmacokinetics of an ^211At-labeled RGD peptide with an albumin-binding moiety via the administration of an albumin-binding inhibitor” (European Journal of Nuclear Medicine and Molecular Imaging, 2024)

Assay: Radiation dose estimation (MIRDcalc, adult male) from mouse biodistribution
Parameters: species or system human
Conditions: for Absorbed dose estimates, Bone marrow / Absorbed dose estimates, Brain / Absorbed dose estimates, Heart / Absorbed dose estimates, Kidney / Absorbed dose estimates, L. intestine / Absorbed dose estimates, Liver / Absorbed dose estimates, Lung / Absorbed dose estimates, Muscle / Absorbed dose estimates, Pancreas / Absorbed dose estimates, S. intestine / Absorbed dose estimates, Spleen / Absorbed dose estimates, Stomach / Absorbed dose estimates, Thyroid / Absorbed dose estimates, Tumor: adult male, MIRDcalc
Description: For estimation of the radiation dose absorbed, the blood, bone, and muscle mass of mice were assumed to be 8%, 5%, and 48% of body weight, respectively. The stomach was assumed to be distributed only in the wall, the heart, small intestine, and colon equally in the content and wall, and the colon was further assumed to be equally distributed in the left, right, and rectosigmoid. According to the International Commission on Radiological Protection, an equal distribution of radionuclide to trabecular and cortical bones was assumed. The non-decay-corrected activity from each source organ was converted into a percentage of the injected dose. The area under each organ’s activity curve from time 0 to infinity was calculated by extrapolation of biodistribution data. To correct for the different ratios of organ to total body weights in mouse and in human, we used the following organ correction factor (CR):
CR=organmass/totalbodymasshuman/organmass/totalbodymassmouse
Human organ weights and total body weights used data for adult males from previous reports. Tumor volume was converted from mouse-to-human total body weight ratio. According to the values, the radiation doses were calculated for an adult male patient using MIRDcalc v1.21 software (Society of Nuclear Medicine and Molecular Imaging). In the case of without administrating IPBA, calculation was performed using the data of a biodistribution study in our previous study.

[1] = With IPBA, ratio of absorbed dose estimates
[2] = Without IPBA, calculated from data of ref 16
[3] = Without IPBA, ratio of absorbed dose estimates, calculated from data of ref 16

For “Ga-DOTA-K([^211At]APBA)-c(RGDfK) [[^211At]1]”, the “Absorbed dose to tumor tissue” value (1.85 MBq with IPBA) was 1.34 mGy, the “Absorbed dose estimates, Bone marrow” value (With IPBA) was 0.042 mGy/MBq and the “Absorbed dose estimates, Brain” value (With IPBA) was 0.017 mGy/MBq. The “Absorbed dose estimates, Heart” value (With IPBA) was 0.080 mGy/MBq, the “Absorbed dose estimates, Kidney” value (With IPBA) was 0.266 mGy/MBq and the “Absorbed dose estimates, L. intestine” value (With IPBA) was 0.056 mGy/MBq. The “Absorbed dose estimates, Liver” value (With IPBA) was 0.109 mGy/MBq, the “Absorbed dose estimates, Lung” value (With IPBA) was 0.203 mGy/MBq and the “Absorbed dose estimates, Muscle” value (With IPBA) was 0.300 mGy/MBq. The “Absorbed dose estimates, Pancreas” value (With IPBA) was 0.087 mGy/MBq, the “Absorbed dose estimates, S. intestine” value (With IPBA) was 0.052 mGy/MBq and the “Absorbed dose estimates, Spleen” value (With IPBA) was 0.117 mGy/MBq. For the same substance, the “Absorbed dose estimates, Stomach” value (With IPBA) was 0.051 mGy/MBq, the “Absorbed dose estimates, Thyroid” value (With IPBA) was 0.032 mGy/MBq and the “Absorbed dose estimates, Tumor” value (With IPBA) was 0.727 mGy/MBq. The “Tumor/normal tissue ratio, Brain” value [1] was 51.071, the “Tumor/normal tissue ratio, Heart” value [1] was 10.712 and the “Tumor/normal tissue ratio, Kidney” value [1] was 3.226. For the same substance, the “Tumor/normal tissue ratio, L. intestine” value [1] was 15.349, the “Tumor/normal tissue ratio, Liver” value [1] was 7.872 and the “Tumor/normal tissue ratio, Lung” value [1] was 4.227. For the same substance, the “Tumor/normal tissue ratio, Muscle” value [1] was 2.860, the “Tumor/normal tissue ratio, Pancreas” value [1] was 9.873 and the “Tumor/normal tissue ratio, S. intestine” value [1] was 16.437. The “Tumor/normal tissue ratio, Spleen” value [1] was 7.333, the “Tumor/normal tissue ratio, Stomach” value [1] was 16.791 and the “Tumor/normal tissue ratio, Thyroid” value [1] was 26.729. For the same substance, the “Absorbed dose estimates, Bone marrow” value [2] was 0.132 mGy/MBq, the “Absorbed dose estimates, Brain” value [2] was 0.218 mGy/MBq and the “Absorbed dose estimates, Heart” value [2] was 0.381 mGy/MBq. For the same substance, the “Absorbed dose estimates, Kidney” value [2] was 0.427 mGy/MBq, the “Absorbed dose estimates, L. intestine” value [2] was 0.193 mGy/MBq and the “Absorbed dose estimates, Liver” value [2] was 0.319 mGy/MBq. The “Absorbed dose estimates, Lung” value [2] was 0.976 mGy/MBq, the “Absorbed dose estimates, Muscle” value [2] was 0.557 mGy/MBq and the “Absorbed dose estimates, Pancreas” value [2] was 0.246 mGy/MBq. The “Absorbed dose estimates, S. intestine” value [2] was 0.190 mGy/MBq, the “Absorbed dose estimates, Spleen” value [2] was 0.354 mGy/MBq and the “Absorbed dose estimates, Stomach” value [2] was 0.176 mGy/MBq. The “Absorbed dose estimates, Thyroid” value [2] was 0.111 mGy/MBq, the “Absorbed dose estimates, Tumor” value [2] was 0.858 mGy/MBq and the “Tumor/normal tissue ratio, Bone marrow” value [3] was 6.500. The “Tumor/normal tissue ratio, Brain” value [3] was 3.936, the “Tumor/normal tissue ratio, Heart” value [3] was 2.252 and the “Tumor/normal tissue ratio, Kidney” value [3] was 2.009. For the same substance, the “Tumor/normal tissue ratio, L. intestine” value [3] was 4.446, the “Tumor/normal tissue ratio, Liver” value [3] was 2.690 and the “Tumor/normal tissue ratio, Lung” value [3] was 0.879. The “Tumor/normal tissue ratio, Muscle” value [3] was 1.540, the “Tumor/normal tissue ratio, Pancreas” value [3] was 3.488 and the “Tumor/normal tissue ratio, S. intestine” value [3] was 4.516. The “Tumor/normal tissue ratio, Spleen” value [3] was 2.424, the “Tumor/normal tissue ratio, Stomach” value [3] was 4.875 and the “Tumor/normal tissue ratio, Thyroid” value [3] was 7.730.
